Reference: ChEMBL document CHEMBL1629662, “Antimicrobial activity of prulifloxacin tested against a worldwide collection of gastroenteritis-producing pathogens, including those causing traveler's diarrhea” (2009)
≈ marks a conversion by molar mass, not a printed value.

How the values were obtained:
Aeromonas veronii [1] = experiment: Antibacterial activity against Aeromonas veronii by broth microdilution method; format: functional
Escherichia coli [2] = experiment: Antibacterial activity against Escherichia coli assessed as percent susceptible isolates by broth microdilution method; format: functional
Aeromonas hydrophila [3] = experiment: Antibacterial activity against Aeromonas hydrophila assessed as percent susceptible isolates by broth microdilution method; format: functional
[4] = system: Yersinia pseudotuberculosis; experiment: Antibacterial activity against Yersinia pseudotuberculosis assessed as percent susceptible isolates by broth microdilution method; format: functional
Campylobacter jejuni [5] = experiment: Antibacterial activity against Campylobacter jejuni assessed as percent resistant isolates by broth microdilution method; format: functional; conditions: pooled result: one value given for 2 cell lines, strains, targets or settings
Vibrio vulnificus = experiment: Antibacterial activity against Vibrio vulnificus by broth microdilution method; format: functional
Shigella dysenteriae [6] = experiment: Antibacterial activity against Shigella dysenteriae assessed as percent susceptible isolates by broth microdilution method; format: functional
Salmonella enteritidis [7] = experiment: Antibacterial activity against Salmonella enterica serovar Enteritidis assessed as percent susceptible isolates by broth microdilution method; format: functional, Salmonella enterica subsp. enterica serovar Enteritidis; conditions: pooled result: one value given for 5 cell lines, strains, targets or settings
Shigella sonnei [8] = experiment: Antibacterial activity against Shigella sonnei assessed as percent resistant isolates by broth microdilution method; format: functional; conditions: pooled result: one value given for 4 cell lines, strains, targets or settings
Campylobacter jejuni [9] = experiment: Antibacterial activity against Campylobacter jejuni assessed as percent susceptible isolates by broth microdilution method; format: functional; conditions: pooled result: one value given for 2 cell lines, strains, targets or settings
Campylobacter jejuni [10] = experiment: Antibacterial activity against Campylobacter jejuni by broth microdilution method; format: functional
Aeromonas hydrophila [11] = experiment: Antibacterial activity against Aeromonas hydrophila assessed as percent resistant isolates by broth microdilution method; format: functional
Shigella dysenteriae [12] = experiment: Antibacterial activity against Shigella dysenteriae by broth microdilution method; format: functional
Plesiomonas shigelloides [13] = experiment: Antibacterial activity against Plesiomonas shigelloides by broth microdilution method; format: functional
Vibrio parahaemolyticus = experiment: Antibacterial activity against Vibrio parahaemolyticus by broth microdilution method; format: functional
Vibrio fluvialis = experiment: Antibacterial activity against Vibrio fluvialis by broth microdilution method; format: functional
Shigella sonnei [14] = experiment: Antibacterial activity against Shigella sonnei by broth microdilution method; format: functional
Salmonella paratyphi [15] = experiment: Antibacterial activity against Salmonella enterica serovar Paratyphi by broth microdilution method; format: functional, Salmonella enterica subsp. enterica serovar Paratyphi A
Salmonella typhimurium [16] = experiment: Antibacterial activity against Salmonella enterica serovar Typhimurium assessed as percent resistant isolates by broth microdilution method; format: functional, Salmonella enterica subsp. enterica serovar Typhimurium; conditions: pooled result: one value given for 8 cell lines, strains, targets or settings
Shigella boydii [17] = experiment: Antibacterial activity against Shigella boydii assessed as percent susceptible isolates by broth microdilution method; format: functional; conditions: pooled result: one value given for 3 cell lines, strains, targets or settings
Aeromonas sobria [18] = experiment: Antibacterial activity against Aeromonas sobria assessed as percent susceptible isolates by broth microdilution method; format: functional
Shigella flexneri = experiment: Antibacterial activity against Shigella flexneri by broth microdilution method; format: functional
Aeromonas sobria [19] = experiment: Antibacterial activity against Aeromonas sobria assessed as percent resistant isolates by broth microdilution method; format: functional
Escherichia coli [20] = experiment: Antibacterial activity against Escherichia coli by broth microdilution method; format: functional
Vibrio cholerae = experiment: Antibacterial activity against Vibrio cholerae by broth microdilution method; format: functional
Aeromonas caviae [21] = experiment: Antibacterial activity against Aeromonas caviae assessed as percent resistant isolates by broth microdilution method; format: functional
Aeromonas caviae [22] = experiment: Antibacterial activity against Aeromonas caviae assessed as percent susceptible isolates by broth microdilution method; format: functional
Escherichia coli [23] = experiment: Antibacterial activity against Escherichia coli assessed as percent resistant isolates by broth microdilution method; format: functional
Plesiomonas shigelloides [24] = experiment: Antibacterial activity against Plesiomonas shigelloides assessed as percent resistant isolates by broth microdilution method; format: functional
Salmonella enteritidis [25] = experiment: Antibacterial activity against Salmonella enterica serovar Enteritidis by broth microdilution method; format: functional, Salmonella enterica subsp. enterica serovar Enteritidis
Aeromonas caviae [26] = experiment: Antibacterial activity against Aeromonas caviae by broth microdilution method; format: functional
Aeromonas sobria [27] = experiment: Antibacterial activity against Aeromonas sobria by broth microdilution method; format: functional
Yersinia enterocolitica [28] = experiment: Antibacterial activity against Yersinia enterocolitica assessed as percent susceptible isolates by broth microdilution method; format: functional
Shigella boydii [29] = experiment: Antibacterial activity against Shigella boydii by broth microdilution method; format: functional
Salmonella paratyphi [30] = experiment: Antibacterial activity against Salmonella enterica serovar Paratyphi assessed as percent susceptible isolates by broth microdilution method; format: functional, Salmonella enterica subsp. enterica serovar Paratyphi A
Yersinia enterocolitica [31] = experiment: Antibacterial activity against Yersinia enterocolitica assessed as percent resistant isolates by broth microdilution method; format: functional
Salmonella typhi = experiment: Antibacterial activity against Salmonella enterica serovar Typhi assessed as percent susceptible isolates by broth microdilution method; format: functional, Salmonella enterica subsp. enterica serovar Typhi
Plesiomonas shigelloides [32] = experiment: Antibacterial activity against Plesiomonas shigelloides assessed as percent susceptible isolates by broth microdilution method; format: functional
Aeromonas veronii [33] = experiment: Antibacterial activity against Aeromonas veronii assessed as percent susceptible isolates by broth microdilution method; format: functional
[34] = system: Yersinia pseudotuberculosis; experiment: Antibacterial activity against Yersinia pseudotuberculosis by broth microdilution method; format: functional
Aeromonas veronii [35] = experiment: Antibacterial activity against Aeromonas veronii assessed as percent resistant isolates by broth microdilution method; format: functional
Vibrio sp. = experiment: Antibacterial activity against Vibrio sp. by broth microdilution method; format: functional
Vibrio alginolyticus = experiment: Antibacterial activity against Vibrio alginolyticus by broth microdilution method; format: functional
Aeromonas hydrophila [36] = experiment: Antibacterial activity against Aeromonas hydrophila by broth microdilution method; format: functional
Campylobacter coli = experiment: Antibacterial activity against Campylobacter coli by broth microdilution method; format: functional
Yersinia enterocolitica [37] = experiment: Antibacterial activity against Yersinia enterocolitica by broth microdilution method; format: functional
Salmonella typhimurium [38] = experiment: Antibacterial activity against Salmonella enterica serovar Typhimurium by broth microdilution method; format: functional, Salmonella enterica subsp. enterica serovar Typhimurium

`O=C(O)c1cn(C2CC2)c2cc(N3CCNCC3)c(F)cc2c1=O` [CIPROFLOXACIN] was tested. Which MIC50 (Aeromonas veronii [1]) did it give?
The MIC50 was 0.004 µg/mL (≈ 0.0121 µM).

What about the MIC90 (Aeromonas veronii [1]) of the same molecule?
The MIC90 was 0.06 µg/mL (≈ 0.181 µM).

What about the Activity (Escherichia coli [2]) of the same molecule?
The Activity was 97%.

What about the Activity (Aeromonas hydrophila [3]) of the same molecule?
Its Activity is 98%.

And the Activity [4]?
The Activity was 100%.

What about the Activity (Campylobacter jejuni [5]) of the same molecule?
Its Activity is 16.5%.

What about the MIC50 (Vibrio vulnificus) of the same molecule?
The MIC50 was 0.016 µg/mL (≈ 0.0483 µM).

And the MIC90 (Vibrio vulnificus)?
The MIC90 was 0.06 µg/mL (≈ 0.181 µM).

And the Activity (Shigella dysenteriae [6])?
The Activity was 100%.

And the Activity (Salmonella enteritidis [7])?
The Activity was 100%.

What about the Activity (Shigella sonnei [8]) of the same molecule?
Its Activity is 0%.

What about the Activity (Campylobacter jejuni [9]) of the same molecule?
Its Activity is 82.6%.

What about the MIC50 (Campylobacter jejuni [10]) of the same molecule?
Its MIC50 is 0.06 µg/mL (≈ 0.181 µM).

And the MIC90 (Campylobacter jejuni [10])?
Its MIC90 is over 2 µg/mL.

What about the Activity (Aeromonas hydrophila [11]) of the same molecule?
Its Activity is 2%.

What about the MIC50 (Shigella dysenteriae [12]) of the same molecule?
Its MIC50 is 0.008 µg/mL (≈ 0.0241 µM).

What about the MIC90 (Shigella dysenteriae [12]) of the same molecule?
The MIC90 was 0.016 µg/mL (≈ 0.0483 µM).

And the MIC50 (Plesiomonas shigelloides [13])?
Its MIC50 is 0.004 µg/mL (≈ 0.0121 µM).

And the MIC50 (Vibrio parahaemolyticus)?
The MIC50 was 0.016 µg/mL (≈ 0.0483 µM).

What about the MIC90 (Vibrio parahaemolyticus) of the same molecule?
Its MIC90 is 0.06 µg/mL (≈ 0.181 µM).

What about the MIC50 (Vibrio fluvialis) of the same molecule?
The MIC50 was 0.016 µg/mL (≈ 0.0483 µM).

What about the MIC90 (Vibrio fluvialis) of the same molecule?
The MIC90 was 0.06 µg/mL (≈ 0.181 µM).

And the MIC50 (Shigella sonnei [14])?
Its MIC50 is 0.008 µg/mL (≈ 0.0241 µM).

What about the MIC90 (Shigella sonnei [14]) of the same molecule?
The MIC90 was 0.016 µg/mL (≈ 0.0483 µM).

And the MIC (Salmonella paratyphi [15])?
Its MIC is 0.004 µg/mL (≈ 0.0121 µM).

What about the Activity (Salmonella typhimurium [16]) of the same molecule?
The Activity was 0%.

And the Activity (Shigella boydii [17])?
The Activity was 100%.

And the Activity (Aeromonas sobria [18])?
Its Activity is 98%.

And the MIC50 (Shigella flexneri)?
Its MIC50 is 0.008 µg/mL (≈ 0.0241 µM).

What about the MIC90 (Shigella flexneri) of the same molecule?
Its MIC90 is 0.016 µg/mL (≈ 0.0483 µM).

And the Activity (Aeromonas sobria [19])?
The Activity was 2%.

And the MIC50 (Escherichia coli [20])?
Its MIC50 is 0.008 µg/mL (≈ 0.0241 µM).

And the MIC90 (Escherichia coli [20])?
The MIC90 was 0.016 µg/mL (≈ 0.0483 µM).

What about the MIC50 (Vibrio cholerae) of the same molecule?
The MIC50 was 0.016 µg/mL (≈ 0.0483 µM).

And the MIC90 (Vibrio cholerae)?
The MIC90 was 0.06 µg/mL (≈ 0.181 µM).

And the Activity (Aeromonas caviae [21])?
Its Activity is 2%.

What about the Activity (Aeromonas caviae [22]) of the same molecule?
The Activity was 98%.

What about the Activity (Escherichia coli [23]) of the same molecule?
The Activity was 3%.

What about the Activity (Plesiomonas shigelloides [24]) of the same molecule?
Its Activity is 0%.

And the MIC50 (Salmonella enteritidis [25])?
Its MIC50 is 0.008 µg/mL (≈ 0.0241 µM).

What about the MIC90 (Salmonella enteritidis [25]) of the same molecule?
The MIC90 was 0.12 µg/mL (≈ 0.362 µM).

And the MIC50 (Aeromonas caviae [26])?
Its MIC50 is 0.004 µg/mL (≈ 0.0121 µM).

And the MIC90 (Aeromonas caviae [26])?
Its MIC90 is 0.06 µg/mL (≈ 0.181 µM).

And the MIC50 (Aeromonas sobria [27])?
Its MIC50 is 0.004 µg/mL (≈ 0.0121 µM).

And the MIC90 (Aeromonas sobria [27])?
The MIC90 was 0.06 µg/mL (≈ 0.181 µM).

And the Activity (Yersinia enterocolitica [28])?
Its Activity is 100%.

And the MIC50 (Shigella boydii [29])?
Its MIC50 is 0.008 µg/mL (≈ 0.0241 µM).

And the MIC90 (Shigella boydii [29])?
Its MIC90 is 0.016 µg/mL (≈ 0.0483 µM).

What about the Activity (Salmonella paratyphi [30]) of the same molecule?
Its Activity is 100%.

And the Activity (Yersinia enterocolitica [31])?
The Activity was 0%.

And the Activity (Salmonella typhi)?
The Activity was 100%.

And the Activity (Plesiomonas shigelloides [32])?
The Activity was 100%.

And the Activity (Aeromonas veronii [33])?
Its Activity is 98%.

What about the MIC50 [34] of the same molecule?
The MIC50 was 0.016 µg/mL (≈ 0.0483 µM).

And the MIC90 [34]?
The MIC90 was 0.03 µg/mL (≈ 0.0905 µM).

And the Activity (Aeromonas veronii [35])?
The Activity was 2%.

What about the MIC50 (Vibrio sp.) of the same molecule?
The MIC50 was 0.016 µg/mL (≈ 0.0483 µM).

And the MIC90 (Vibrio sp.)?
Its MIC90 is 0.06 µg/mL (≈ 0.181 µM).

And the MIC50 (Vibrio alginolyticus)?
The MIC50 was 0.016 µg/mL (≈ 0.0483 µM).

And the MIC90 (Vibrio alginolyticus)?
The MIC90 was 0.06 µg/mL (≈ 0.181 µM).

And the MIC50 (Aeromonas hydrophila [36])?
The MIC50 was 0.004 µg/mL (≈ 0.0121 µM).

What about the MIC90 (Aeromonas hydrophila [36]) of the same molecule?
Its MIC90 is 0.06 µg/mL (≈ 0.181 µM).

And the MIC50 (Campylobacter coli)?
The MIC50 was 0.06 µg/mL (≈ 0.181 µM).

What about the MIC90 (Campylobacter coli) of the same molecule?
Its MIC90 is over 2 µg/mL.

What about the MIC50 (Yersinia enterocolitica [37]) of the same molecule?
Its MIC50 is 0.016 µg/mL (≈ 0.0483 µM).

What about the MIC90 (Yersinia enterocolitica [37]) of the same molecule?
The MIC90 was 0.03 µg/mL (≈ 0.0905 µM).

What about the MIC50 (Salmonella typhimurium [38]) of the same molecule?
Its MIC50 is 0.008 µg/mL (≈ 0.0241 µM).

What about the MIC90 (Salmonella typhimurium [38]) of the same molecule?
The MIC90 was 0.12 µg/mL (≈ 0.362 µM).
